Where two headings read alike, the source gives them in different places. Where no end group is shown, it is not given here.
Key:
Type in all cases: cell-based
[1] = target: T1, PfCRT^Dd2 (Plasmodium falciparum, UniProt Q9N623, A220S/I356T/K76T/M74I/N326S/N75E/Q271E/R371I); assay: [3H]CQ uptake into Xenopus oocytes, cis-inhibition by unlabelled solute; details: read-out: PfCRT-mediated [3H]CQ transport, cis-inhibition (% PfCRTDd2 control)
Procedure, shortened: (§1)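 Washed oocytes (ten per treatment) were exposed to label in pH 5.5 ND96 for 1.5 h at 27.5 °C. Buffer was then removed, cells rinsed in ice-cold ND96, lysed in SDS and counted.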

[2] = target: T2, PfCRT^Ecu1110 (Plasmodium falciparum, UniProt Q9N623, A220S/I356L/K76T/N326D); assay: as above
T2 sequence (Q9N623 whole entry A220S/I356L/K76T/N326D): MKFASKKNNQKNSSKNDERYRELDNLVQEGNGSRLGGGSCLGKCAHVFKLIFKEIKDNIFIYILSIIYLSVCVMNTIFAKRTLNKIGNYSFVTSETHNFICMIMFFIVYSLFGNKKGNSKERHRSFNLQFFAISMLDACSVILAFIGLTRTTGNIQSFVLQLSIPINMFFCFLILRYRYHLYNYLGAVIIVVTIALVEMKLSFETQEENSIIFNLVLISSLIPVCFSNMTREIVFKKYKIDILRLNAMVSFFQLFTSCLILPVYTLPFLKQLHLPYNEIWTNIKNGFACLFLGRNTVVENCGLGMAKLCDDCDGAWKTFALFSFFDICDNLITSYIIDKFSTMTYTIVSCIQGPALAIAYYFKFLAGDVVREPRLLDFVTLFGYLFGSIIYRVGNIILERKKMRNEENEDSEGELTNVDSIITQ
Procedure, shortened: as §1

[3] = target: PfCRT^3D7 (Plasmodium falciparum, UniProt Q8IBZ9); assay: cell-based; details: for [3H]CQ transport, PfCRT3D7 (% PfCRTDd2 control): 45 mM VF-6 injected, 96 mM Na+ injection buffer; for activity at 2000 µM: read-out: [3H]CQ transport, PfCRT3D7, trans-stimulation, solute 2 mM; for [3H]CQ transport, PfCRT3D7 (% PfCRT3D7 control): solute 45 mM injected (estimated intracellular)
PfCRT^3D7, sequence (Q8IBZ9 59-398): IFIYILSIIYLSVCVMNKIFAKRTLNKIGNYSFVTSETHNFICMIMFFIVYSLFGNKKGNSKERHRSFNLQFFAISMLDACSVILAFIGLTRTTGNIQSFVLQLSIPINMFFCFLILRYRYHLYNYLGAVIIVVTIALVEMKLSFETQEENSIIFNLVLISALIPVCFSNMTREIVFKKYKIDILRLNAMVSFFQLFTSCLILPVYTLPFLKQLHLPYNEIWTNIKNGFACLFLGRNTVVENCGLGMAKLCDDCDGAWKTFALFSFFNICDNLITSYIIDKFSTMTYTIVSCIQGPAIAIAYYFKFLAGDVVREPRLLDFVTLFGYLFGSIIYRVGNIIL
Procedure, shortened: (§2)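 Transport measured in Xenopus oocytes expressing the transporters, 1.5 h at 27.5 °C in ND96 pH 5.5 unless noted. For trans-stimulation, VF-6 injected in 25 nL ND96 at pH 5.0–7.0 or Na^+-free (choline) buffer; intracellular levels based on ~400 nL oocyte volume. Ten oocytes per treatment, ≥4 experiments.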

[4] = target: T1, PfCRT^Dd2; assay: cell-based; details: […]; for activity at 2000 µM: pH 5.5, read-out: [3H]CQ transport, PfCRTDd2, trans-stimulation, solute 2 mM
Procedure, shortened: as §2

[5] = target: T2, PfCRT^Ecu1110; assay: cell-based; details: […]; for activity at 45000 µM: read-out: [3H]CQ transport, PfCRTEcu1110 (% PfCRTDd2 control), 45 mM VF-6 injected, 0 mM Na+ injection buffer; for activity at 2000 µM: read-out: [3H]CQ transport, PfCRTEcu1110, trans-stimulation, solute 2 mM
Procedure, shortened: as §2

[6] = target: T3, PfNT1 (Plasmodium falciparum, UniProt Q8IDM6); assay: cell-based; details: for activity at 2000 µM: read-out: [3H]CQ transport, PfNT1, trans-stimulation, solute 2 mM
T3 construct: expressed in transfected cells; host or cells: Xenopus laevis oocytes (stage V-VI), cRNA-injected
T3 sequence (Q8IDM6 whole entry): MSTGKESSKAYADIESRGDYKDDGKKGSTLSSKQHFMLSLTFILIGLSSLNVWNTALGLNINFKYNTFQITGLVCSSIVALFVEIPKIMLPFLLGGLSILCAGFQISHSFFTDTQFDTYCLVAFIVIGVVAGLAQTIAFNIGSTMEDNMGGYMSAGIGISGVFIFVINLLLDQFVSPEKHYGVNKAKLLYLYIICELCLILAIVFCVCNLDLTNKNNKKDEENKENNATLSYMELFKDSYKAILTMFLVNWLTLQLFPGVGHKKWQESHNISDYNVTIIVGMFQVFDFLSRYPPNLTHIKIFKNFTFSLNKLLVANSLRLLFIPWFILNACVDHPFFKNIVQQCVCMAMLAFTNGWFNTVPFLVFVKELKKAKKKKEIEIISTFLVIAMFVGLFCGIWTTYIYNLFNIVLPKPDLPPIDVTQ
Procedure, shortened: as §2

[7] = read-out: PfCRT-mediated [3H]CQ transport, cis-inhibition (% PfCRTEcu1110 control)
[8] = read-out: [3H]CQ transport (% PfCRTEcu1110 control), cis-inhibition, PfCRTEcu1110, SEM

T1 sequence (Q9N623 whole entry A220S/I356T/K76T/M74I/N326S/N75E/Q271E/R371I): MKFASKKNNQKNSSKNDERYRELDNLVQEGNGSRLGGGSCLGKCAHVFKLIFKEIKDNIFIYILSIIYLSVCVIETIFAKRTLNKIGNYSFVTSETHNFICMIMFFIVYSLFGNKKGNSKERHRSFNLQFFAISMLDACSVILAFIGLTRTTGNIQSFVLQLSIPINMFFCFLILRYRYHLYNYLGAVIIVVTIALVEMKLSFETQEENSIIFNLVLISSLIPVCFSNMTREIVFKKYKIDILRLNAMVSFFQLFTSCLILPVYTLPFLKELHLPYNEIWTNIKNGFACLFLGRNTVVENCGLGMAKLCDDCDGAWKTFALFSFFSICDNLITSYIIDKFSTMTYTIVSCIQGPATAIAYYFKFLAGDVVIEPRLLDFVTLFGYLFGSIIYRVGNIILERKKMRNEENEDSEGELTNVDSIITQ

VDPVNF [VF-6]
inhibition at 500 µM [1]: 30 ± 1.1%
inhibition at 1000 µM [1]: 21 ± 0.8%
inhibition at 2000 µM [1]: 8.1 ± 0.2%
inhibition at 500 µM [2, 7]: 50 ± 2.4%
inhibition at 1000 µM [2, 7]: 39 ± 4.1%
inhibition at 2000 µM [2, 7]: 26 ± 2.1%
inhibition at 500 µM [2, 8]: 16 ± 0.3%
inhibition at 1000 µM [2, 8]: 12 ± 0.2%
inhibition at 2000 µM [2, 8]: 8 ± 0.04%
[3H]CQ transport, PfCRT3D7 (% PfCRTDd2 control) ([3]; Experiment 1): 22.53 % PfCRTDd2 control
[3H]CQ transport, PfCRT3D7 (% PfCRTDd2 control) ([3]; Experiment 2): 23.78 % PfCRTDd2 control
[3H]CQ transport, PfCRT3D7 (% PfCRTDd2 control) ([3]; Experiment 3): 24.68 % PfCRTDd2 control
[3H]CQ transport, PfCRT3D7 (% PfCRTDd2 control) ([3]; Experiment 4): 25.32 % PfCRTDd2 control
[3H]CQ transport, PfCRT3D7 (% PfCRTDd2 control) ([3]; Experiment 5): 26.32 % PfCRTDd2 control
activity at 5000 µM ([3]; […], read-out: PfCRT-mediated [3H]CQ transport, trans-stimulation (% PfCRT3D7 control), [test solute]i = 5 mM (intracellular), PfCRT3D7 oocytes, normalised to oocyte type control): 147 ± 5.2%
activity at 45000 µM ([3]; […], read-out: PfCRT-mediated [3H]CQ transport, trans-stimulation (% PfCRT3D7 control), [test solute]i = 45 mM (intracellular; 30 mM for some solutes due to solubility), PfCRT3D7 oocytes, normalised to oocyte type control): 195 ± 4.6%
activity at 45000 µM ([3]; […], read-out: [3H]CQ transport, PfCRT3D7 (% PfCRTDd2 control), 45 mM VF-6 injected, 0 mM Na+ injection buffer, Experiment 1): 25.3%
activity at 45000 µM ([3]; […], read-out: [3H]CQ transport, PfCRT3D7 (% PfCRTDd2 control), 45 mM VF-6 injected, 0 mM Na+ injection buffer, Experiment 2): 26.4%
activity at 45000 µM ([3]; […], read-out: [3H]CQ transport, PfCRT3D7 (% PfCRTDd2 control), 45 mM VF-6 injected, 0 mM Na+ injection buffer, Experiment 3): 25.3%
activity at 45000 µM ([3]; […], read-out: [3H]CQ transport, PfCRT3D7 (% PfCRTDd2 control), 45 mM VF-6 injected, 0 mM Na+ injection buffer, Experiment 4): 26.8%
activity at 45000 µM ([3]; […], read-out: [3H]CQ transport, PfCRT3D7 (% PfCRTDd2 control), 45 mM VF-6 injected, 0 mM Na+ injection buffer, Experiment 5): 27.3%
activity at 2000 µM ([3]; […], Experiment 1): 22.9%
activity at 2000 µM ([3]; […], Experiment 2): 19.1%
activity at 2000 µM ([3]; […], Experiment 3): 21.1%
activity at 2000 µM ([3]; […], Experiment 4): 21.8%
[3H]CQ transport, PfCRT3D7 (% PfCRT3D7 control) ([3]; trans-stimulation, Experiment 1): 187.43 % PfCRT3D7 control
[3H]CQ transport, PfCRT3D7 (% PfCRT3D7 control) ([3]; trans-stimulation, Experiment 2): 206.32 % PfCRT3D7 control
[3H]CQ transport, PfCRT3D7 (% PfCRT3D7 control) ([3]; trans-stimulation, Experiment 3): 201.32 % PfCRT3D7 control
[3H]CQ transport, PfCRT3D7 (% PfCRT3D7 control) ([3]; trans-stimulation, Experiment 4): 199.25 % PfCRT3D7 control
[3H]CQ transport (% PfCRT3D7 control), trans-stimulation, PfCRT3D7 ([3]; trans-stimulation, [test solute]i = 5 mM (injected), PfCRT-mediated component (background subtracted), sheet title says normalised to PfCRTDd2 control, mean ± SEM, SEM): 1.7 ± 0.02 % PfCRT3D7 control
activity at 5000 µM ([4]; pH 5.5, read-out: PfCRT-mediated [3H]CQ transport, trans-stimulation (% PfCRTDd2 control), [test solute]i = 5 mM (intracellular), PfCRTDd2 oocytes, normalised to oocyte type control): 103 ± 3.1%
activity at 5000 µM ([4]; pH 5.5, read-out: [3H]CQ transport (% PfCRTDd2 control), trans-stimulation, PfCRTDd2, trans-stimulation, [test solute]i = 5 mM (injected), PfCRT-mediated component (background subtracted), mean ± SEM, SEM): 103 ± 3.1%
activity at 45000 µM ([4]; pH 5.5, read-out: [3H]CQ transport (% PfCRTDd2 control), trans-stimulation, PfCRTDd2, trans-stimulation, [test solute]i = 45 mM (30 mM for some solutes due to solubility), PfCRT-mediated component (background subtracted), mean ± SEM, SEM): 112 ± 2.1%
activity at 2000 µM ([4]; Experiment 1): 120%
activity at 2000 µM ([4]; Experiment 2): 119%
activity at 2000 µM ([4]; Experiment 3): 120%
activity at 2000 µM ([4]; Experiment 4): 112%
activity at 5000 µM ([5]; pH 5.5, read-out: PfCRT-mediated [3H]CQ transport, trans-stimulation (% PfCRTEcu1110 control), [test solute]i = 5 mM (intracellular), PfCRTEcu1110 oocytes, normalised to oocyte type control): 126 ± 2.4%
activity at 45000 µM ([5]; Experiment 1): 47.7%
activity at 45000 µM ([5]; Experiment 2): 47.6%
activity at 45000 µM ([5]; Experiment 3): 50.8%
activity at 45000 µM ([5]; Experiment 4): 49.2%
activity at 45000 µM ([5]; Experiment 5): 51.1%
activity at 2000 µM ([5]; Experiment 1): 44.2%
activity at 2000 µM ([5]; Experiment 2): 47.3%
activity at 2000 µM ([5]; Experiment 3): 38.4%
activity at 2000 µM ([5]; Experiment 4): 45.6%
[3H]CQ transport, PfNT1 (% PfCRTDd2 control) ([6]; 45 mM VF-6 injected, 0 mM Na+ injection buffer, Experiment 1): 3.36 % PfCRTDd2 control
[3H]CQ transport, PfNT1 (% PfCRTDd2 control) ([6]; 45 mM VF-6 injected, 0 mM Na+ injection buffer, Experiment 2): 3.47 % PfCRTDd2 control
[3H]CQ transport, PfNT1 (% PfCRTDd2 control) ([6]; 45 mM VF-6 injected, 0 mM Na+ injection buffer, Experiment 3): 3.88 % PfCRTDd2 control
[3H]CQ transport, PfNT1 (% PfCRTDd2 control) ([6]; 45 mM VF-6 injected, 0 mM Na+ injection buffer, Experiment 4): 3.57 % PfCRTDd2 control
[3H]CQ transport, PfNT1 (% PfCRTDd2 control) ([6]; 45 mM VF-6 injected, 0 mM Na+ injection buffer, Experiment 5): 3.69 % PfCRTDd2 control
[3H]CQ transport, PfNT1 (% PfCRTDd2 control) ([6]; 45 mM VF-6 injected, 96 mM Na+ injection buffer, Experiment 1): 3.72 % PfCRTDd2 control
[3H]CQ transport, PfNT1 (% PfCRTDd2 control) ([6]; 45 mM VF-6 injected, 96 mM Na+ injection buffer, Experiment 2): 3.21 % PfCRTDd2 control
[3H]CQ transport, PfNT1 (% PfCRTDd2 control) ([6]; 45 mM VF-6 injected, 96 mM Na+ injection buffer, Experiment 3): 3.67 % PfCRTDd2 control
[3H]CQ transport, PfNT1 (% PfCRTDd2 control) ([6]; 45 mM VF-6 injected, 96 mM Na+ injection buffer, Experiment 4): 3.45 % PfCRTDd2 control
[3H]CQ transport, PfNT1 (% PfCRTDd2 control) ([6]; 45 mM VF-6 injected, 96 mM Na+ injection buffer, Experiment 5): 3.27 % PfCRTDd2 control
activity at 2000 µM ([6]; Experiment 1): 2.65%
activity at 2000 µM ([6]; Experiment 2): 2.51%
activity at 2000 µM ([6]; Experiment 3): 2.61%
activity at 2000 µM ([6]; Experiment 4): 2.73%
[3H]CQ transport, PfNT1 (% PfCRTDd2 control) ([6]; trans-stimulation, solute 45 mM injected (estimated intracellular), Experiment 1): 2.65 % PfCRTDd2 control
[3H]CQ transport, PfNT1 (% PfCRTDd2 control) ([6]; trans-stimulation, solute 45 mM injected (estimated intracellular), Experiment 2): 2.51 % PfCRTDd2 control
[3H]CQ transport, PfNT1 (% PfCRTDd2 control) ([6]; trans-stimulation, solute 45 mM injected (estimated intracellular), Experiment 3): 2.61 % PfCRTDd2 control
[3H]CQ transport, PfNT1 (% PfCRTDd2 control) ([6]; trans-stimulation, solute 45 mM injected (estimated intracellular), Experiment 4): 2.73 % PfCRTDd2 control
